pEC50, pIC50: −log10 of the molar value. Where a name gives a salt, the structure may show the parent alone. Read-outs that look alike come from different tables or passages of the source.
Legend:
VEGF = VEGF ELISA Assay in HEK293 cells; type: cell-based; details: Homo sapiens; for pIC50: HEK293 cells, head prints IC50, method calculates EC50 from % of DFO stimulation, read-out: VEGF IC50
Procedure: HEK293 cells are seeded in 96-well poly-lysine coated plates at 20,000 cells per well in DMEM (10% FBS, 1% NEAA, 0.1% glutamine). Following overnight incubation, the cells are washed with 100 μL of Opti-MEM (Gibco, Carlsbad, Calif.) to remove serum. Compound in DMSO is serially diluted (beginning with 100 μM) in Opti-MEM and added to the cells. The conditioned media is analyzed for VEGF with a Quantikine human VEGF immunoassay kit (R&D Systems, Minneapolis, Minn.). Optical density measurements at 450 nm are recorded using the Spectra Max 250 (Molecular Devices, Sunnyvale, Calif.). Data defined as % of DFO stimulation is used to calculate EC50 values with GraphPad Prism 4 software (San Diego, Calif.).

EPO = experiment: Mouse Serum EPO Assay; type: in vivo
Procedure: All animal work is conducted in accordance with the Guide for the Care and Use of Laboratory Animals (National Academy of Sciences; Copyright © 1996). Used in these experiments were 9-10 week old male C57Bl/6 mice from Charles River Laboratory (Portage, Mich.). The mice are orally dosed with vehicle (aqueous carbonate buffer, 50 mM; pH 9.0) or with the compound to be tested in vehicle at 50 mg/kg or 100 mg/kg. The animals are dosed three times: day 1 at 8 AM and 5 PM, and on day 2 at 8 AM. One hour after the first dose, unilateral arterial ligation is performed under anesthesia using isoflurane. The femoral artery is ligated proximal to the origin of the popliteal artery. The contralateral limb undergoes a sham surgical procedure. Ligation is performed in an alternating fashion between right and left hindlimbs. Two hours after the 8 AM dosing on day 2, blood is obtained by ventricular stick while the mice are anesthetized with isoflurane. Serum samples for EPO analysis are obtained using gel clot serum separation tubes. Heart, liver, and gastrocnemius muscles are harvested, snap-frozen in liquid nitrogen, and stored in −80° C. until use.
The mouse serum EPO is detected using Mouse Quantikine Erythropoietin ELISA kit from R&D Systems according to manufacturer's instructions.

[1] = system: phosphoglycerate kinase (PGK) expression; experiment: PGK expression in murine embryonic fibroblasts; type: cell-based; details: wild type murine embryonic fibroblasts, 1 μM and 10 μM (FIG. 12)
Procedure: FIG. 11 depicts the up regulation of phosphoglycerate kinase (PGK) expression in wild type murine embryonic fibroblasts as a result of treatment with compound a compound disclosed in Table VIII at dosages of 1 μM (E), 10 μM (F), and 50 μM (G) vs. wild type control (H) and the lack of up regulation of PGK expression in HIF-1 knock out cells as a result of treatment with a compound disclosed in Table VIII at dosages of 1 μM (A), 10 μM (B), and 50 μM (C) and HIF-1 knock out control (D). Both cell types were treated for 7 hours.

Staphylococcus aureus = details: dose-dependent; cited from earlier work
S. aureus = details: murine model of S. aureus skin infection; cited from earlier work
[2] = Solubility of salts in distilled deionized water (HPLC); type: physicochemical
Procedure: The formulator can determine the solubility of the pharmaceutically acceptable salts of the disclosed inhibitors by any method desirable. The following is a non-limiting example of a procedure for evaluating the solubility of a salt of a disclosed inhibitor. A suspension of tert-butyl-{[1-(4-chlorobenzyl)-3-hydroxy-2-oxo-1,2-dihydropyridin-4-yl]methyl}-piperazine-1-carboxylate methanesulfonate (26.6 mg) in distilled deionized water (3.0 mL) is sonicated for 20 min with water bath temperature under 25° C. The suspension is filtered to remove any insoluble salt. The clear filtrate solution (200 μL) is diluted with distilled deionized water (800 μL) and subjected to HPLC analysis. The following are results for the pharmaceutically acceptable salts outlined in Table VII above.

Structure (SMILES)	pIC50 (VEGF)	further results
O=c1c(O)c(CN2CCN(Cc3ccccc3)CC2)ccn1Cc1ccccc1 [Compound B9, 1-benzyl-3-hydroxy-4-[(4-benzyipiperazin-1-yl)methyl]pyridin-2(1H)-one]	4.90	–
O=C1NCCCCC1NCc1ccn(Cc2ccccc2)c(=O)c1O (centres unmarked) [Compound C19, 3-[(1-benzyl-3-hydroxy-2-oxo-1,2-dihydropyridin-4-yl)methylamino]azepan-2-one]	4.20	–
COC[C@H]1CCCN1Cc1ccn(Cc2ccccc2)c(=O)c1O [Compound B5, (R)-1-benzyl-3-hydroxy-4-{[2-(methoxymethyl)pyrrolidin-1-yl]methyl}pyridin-2(1H)-one]	4.28	–
Cc1ccc(S(=O)(=O)n2ccc(CN3CCN(c4ccc(Cl)nn4)CC3)c(O)c2=O)cc1 [Compound D14, 1-[(4-methylphenyl)sulfonyl]-3-hydroxy-4-{[4-(6-chloropyridazin-3-yl)piperazin-1-yl]methyl}pyridin-2(1H)-one]	4.72	–
O=c1c(O)c(CN2CCN(c3ccc(Cl)nn3)CC2)ccn1Cc1ccccc1 [Compound B14, 1-benzyl-3-hydroxy-4-{[4-(6-chloropyridazin-3-yl)piperazin-1-yl]methyl}pyridin-2(1H)-one]	4.11	–
O=c1c(O)cccn1Cc1cccc(Cl)c1 [Compound F2, 1-(3-chlorobenzyl)-3-hydroxypyridin-2(1H)-one]	< 4.00	pEC50 (EPO): 4.85; PGK expression [1]: up regulation
O=c1c(O)cccn1Cc1ccc(Cl)cc1 [Compound F3, 1-(4-chlorobenzyl)-3-hydroxypyridin-2(1H)-one]	5.13	–
O=c1c(O)c(CNCc2ccccc2)ccn1Cc1ccc(Cl)cc1 [Compound C1, 1-(4-chlorobenzyl)-3-hydroxy-4-[(4-benzylamino)methyl]pyridin-2(1H)-one]	4.38	–
CSCCNCc1ccn(Cc2ccccc2)c(=O)c1O [Compound C33, 1-benzyl-3-hydroxy-4-{[2-(methylthio)ethylamino]methyl}pyridin-2(1H)-one]	4.28	–
NC(Cn1ccc(=O)c(O)c1)C(=O)O (centres unmarked) [mimosine]	–	capacity of human phagocytes and whole blood to kill Staphylococcus aureus (Staphylococcus aureus): boost; lesion size (S. aureus): reduce the lesion size
CC1CCC(NCc2ccn(Cc3ccccc3)c(=O)c2O)CC1 (centres unmarked) [Compound C17, 1-benzyl-3-hydroxy-4-[(4-methylcyclohexylamino)methyl]pyridin-2(1H)-one]	4.56	–
CC(C)(C)OC(=O)N1CCN(Cc2ccn(Cc3ccc(Cl)cc3)c(=O)c2O)CC1 [p-toluenesulfonate, tert-butyl-{[1-(4-chlorobenzyl)-3-hydroxy-2-oxo-1,2-dihydropyridin-4-yl]methyl}-piperazine-1-carboxylate]	–	Solubility [2]: 2300 µg/mL
CC(C)(C)OC(=O)N1CCN(Cc2ccn(Cc3ccc(Cl)cc3)c(=O)c2O)CC1 [hydrochloride, tert-butyl-{[1-(4-chlorobenzyl)-3-hydroxy-2-oxo-1,2-dihydropyridin-4-yl]methyl}-piperazine-1-carboxylate]	–	Solubility [2]: 5900 µg/mL
CC(C)(C)OC(=O)N1CCN(Cc2ccn(Cc3ccc(Cl)cc3)c(=O)c2O)CC1 [Compound A41, tert-butyl 4-{[1-(4-chlorobenzyl)-3-hydroxy-2-oxo-1,2-dihydropyridin-4-yl]methyl}piperazine-1-carboxylate]	–	IC50 (VEGF; HEK293, read-out: VEGF IC50 (μM)): 16.6 µM; Solubility ([2]; distilled deionized water, sonicated 20 min, under 25° C., listed as Free base): ~1 µg/mL
COc1ccccc1Cn1ccc(CN2CCCCCC2)c(O)c1=O [Compound A18, 1-(2-methoxybenzyl)-3-hydroxy-4-(azepan-1-ylmethyl)pyridin-2(1H)-one]	4.53	–
Cc1ccc(S(=O)(=O)n2ccc(CN3CCC(N4CCCCC4)CC3)c(O)c2=O)cc1 [Compound D10, 1-[(4-methylphenyl)sulfonyl]-3-hydroxy-4-(1,4′-bipiperidin-1′-ylmethyl)pyridin-2(1H)-one]	4.57	–

Source: patent US10562854B2, “Prolyl hydroxylase inhibitors” (Aerpio Therapeutics, Inc., priority 2009, dated 2020)
